This passage reports EC50 and CC50 results from article PMC4613828 (PLoS Pathogens, 2015).

Data set [1] deals with CVA9 (strain Bozek). The data set can be described thus: Virus-cell-based antiviral assay (CPE reduction, MTS). On the set-up: species or system Coxsackie A9. The following applies: Enterovirus B, BGM cells.
Data set [2] concerns CVA16 (strain G-10). The data set is described as above. Particulars: Enterovirus A, HeLa H1 cells. Also on record: species or system coxsackievirus A16.
Data set [3] has as its system CVA21 (strain Coe). Described as above. Particulars: BGM cells.
Data set [4] relates to CVB3 (strain Nancy). The data set is described as above. Also on record: species or system Coxsackievirus B3. The following applies: Enterovirus B, BGM cells.
The test system of data set [5] is CVB4 (strain E2 Edwards). The data set is described as above. The following applies: Enterovirus B, BGM cells.
The subject of data set [6] is PV1 (poliovirus type 1 strain Sabin). The data set can be described thus: microbe, parasite or virus in culture. The data set is classed as cell-based. Particulars: Enterovirus C, BGM.
In data set [7] the test system is PV2 (poliovirus type 2 strain Sabin). The data set can be described thus: microbe, parasite or virus in culture. In kind it is cell-based. The following applies: Enterovirus C, BGM.
Data set [8] deals with PV3 (poliovirus type 3 strain Sabin). In words: microbe, parasite or virus in culture. The data set is classed as cell-based. The following applies: Enterovirus C, BGM.
Data set [9] has as its system ECHO11 (echovirus 11 strain Gregory). In words: Virus-cell-based antiviral assay (CPE reduction, MTS). The following applies: Enterovirus B, BGM cells.
The subject of data set [10] is HRV02 (human rhinovirus type 2). The data set is described as above. Particulars: Human rhinovirus sp., HeLa H1 cells (footnote c), 35°C.
The subject of data set [11] is HRV14 (human rhinovirus type 14). The data set is described as above. The following applies: Human rhinovirus sp., HeLa H1 cells (footnote c), 35°C.
Data set [12] has as its system EV71-B2 (strain 11316 genogroup B2). Described as above. The following applies: Enterovirus A; EV71 strain 11316 genogroup B2; RD cells. Also on record: species or system enterovirus 71.
In data set [13] the test system is EV71-B5 (strain TW/96016/08 genogroup B5). The data set is described as above. Also on record: species or system enterovirus 71. The following applies: Enterovirus A; EV71 strain TW/96016/08 genogroup B5; RD cells.
Data set [14] is described as follows: in vitro. Particulars: African green monkey.

The term EC50 denotes the concentration needed to bring the measured effect to its halfway point. For the molecule `CCON=Cc1ccc(OCCC(C)CCN2CCN(c3ccnc(C(N)=O)c3)C2=O)cc1` (stereo not shown) [ALD], the half-maximal effective concentration (EC50) in [1] is 5400 ± 1000 nM; in data set [2] it was 43 ± 8 nM; in [3], 56 ± 40 nM; in [4] it was 2200 ± 200 nM; in [5], greater than 7000 nM; in data set [6], 3500 ± 1400 nM. Moreover, the EC50 in data set [7] is 75 ± 19 nM; in data set [8] it was 184 ± 8 nM; in data set [9] it was 2100 ± 500 nM; in data set [10], greater than 21000 nM; in data set [11] it was 843 ± 13 nM; in data set [12], 31 ± 12 nM. The same molecule displayed an EC50 in data set [13] of 82 ± 23 nM. In [14], this molecule had a CC50 of 7000 ± 1000 nM.
For `CCON=Cc1ccc(OCCC(C)CCN2CCN(c3ccncc3)C2=O)cc1` (stereo not shown) [GPP3], the EC50 was 1500 ± 100 nM in data set [1]; 14 ± 4 nM in [2]; 16 ± 15 nM in [3]; 3700 ± 200 nM in data set [4]; greater than 7000 nM in data set [5]; 200 nM in [6]. The EC50 is 6 nM in data set [7]; 66 nM in data set [8]; 500 ± 100 nM in [9]; 1000 ± 700 nM in data set [10]; 1500 ± 300 nM in [11]; 0.96 ± 0.6 nM in data set [12]. Further, the response in [13] was half-maximal at 0.93 ± 0.3 nM (EC50). This molecule showed a CC50 in data set [14] of 7000 ± 2000 nM.
